{"source": "patent US6602892B1", "about": "“Methods for nicotine replacement dosage determination” (priority 1993, dated 2003)", "origin": "cited, not measured here", "conditions": "in vivo", "data": [{"smiles": "CN1C(=O)CC[C@H]1c1cccnc1", "note": "[cotinine]", "values": [{"measurement": "half life", "result": "about 20 hours"}]}, {"smiles": "CN1CCCC1c1cccnc1", "note": "(centres unmarked) [nicotine]", "values": [{"measurement": "half life", "result": "two"}]}]}
